Results taken from patent US20220175787A1, “PATIENT SELECTION FOR ENHANCEMENT OF ANTI-TUMOR IMMUNITY IN CANCER PATIENTS” (G1 Therapeutics Inc., priority 2019, published 2022).

How the values were obtained:
[1] = tested on: extensive stage small cell lung cancer; assay: Phase 2 NCT03041311: overall survival by newly expanded clone fraction; type: in vivo, human; details: SCLC patients on E/P/A above the newly expanded clone fraction median; p=0.04
Procedure: (§1) A phase 2 study of carboplatin, etoposide, and atezolizumab with or without trilaciclib in patients with untreated extensive stage small cell lung cancer was initiated (Clinicaltrials.gov identifier NCT03041311). […] a 21-day induction phase and a 21-day maintenance phase. Four induction phase cycles were completed prior to the initiation of the maintenance phase cycle.
. […] Atezolizumab (1200 mg) in 250 mL sodium chloride solution 0.9% was administered as an IV infusion on day 1 of each 21-day cycle in both the induction and maintenance phases. Atezolizumab was infused over 60 minutes for the first administration and, if tolerated, all subsequent infusions were delivered over 30 minutes. Atezolizumab was administered following the completion of administration of Compound I or placebo, etoposide, and carboplatin.

[2] = tested on: TNBC with high or low Ayers immune signature score; assay: G1T28-04 survival by Ayers IFN-γ Signature / Expanded Immune Signature score; type: in vivo, human; details: Groups 2+3 (Group 4) vs Group 1
Procedure: Tumor samples from patients participating in the clinical trial described in Example 1 where assayed by Q^2 Solutions (Morrisville, N.C.) to determine their Ayers Immune Scores according to Ayers et al., IFN-γ-related mRNA Profile Predicts Clinical Response to PD-1 Blockade, J Clin Invest. 2017127(8)2930-2940. The data was processed using RNA Access, and FPKM normalization prior to log 10 transformation and averaging was performed.
89 samples were analyzed. The calculated signature score for both the IFN-γ Signature and Expanded Immune Signature were unimodel in distribution, and the median score was used to define the “High” and “Low” categories.
Survival and response rates between treatment groups within pre-defined immune response groups were determined using a series of pair-wise, two-group tests based on the data derived in the G1T28-04 clinical trial described in Example 1. Additionally, examination of differences in survival and response rates between different immune response categories within a single treatment group were analyzed.
Kaplan-Meier curves were generated to visualize the overall survival and progression free survival among groups (see FIGS. 8C-8F and 9A-9D). […]

[3] = tested on: TNBC classified C2 IFN-γ Dominant or not; assay: G1T28-04 survival by Thorsson Six Class Immune Signature; type: in vivo, human; details: TNBC classified as C2 IFN-γ Dominant; Groups 2+3 (Group 4) vs Group 1; p=0.036
From the text: Tumor samples from patients participating in the clinical trial (Clinical trials.gov identifier NCT02978716) described in Example 1 where assayed by Q^2 Solutions (Morrisville, N.C.) to determine their Six Class Immune Classification as described in Thorsson V, et al. “The Immune Landscape of Cancer.” Immunity, […], 2018, pp. 812-830. doi: 10.1016/j.immuni.2018.03.023 (incorporated herein by reference in its entirety).
Briefly, a six-step procedure was implemented to apply the Thorsson et al. classification to 89 pre-treatment triple negative breast cancer samples secured in the clinical trial described in Example 1. Following RNAseq data procurement, the data was cleaned and homogenized by reconciling gene and sample names across data sources. […] In short, samples in the resulting TCGA expression data were randomly down-sampled to more closely reflect the abundance of PAM50 classes within the clinical trial data (previously derived, see Example 1, Table 7). […]
Survival and response rates between treatment groups within pre-defined immune response groups were determined using a series of pair-wise, two-group tests based on the data derived in the G1T28-04 clinical trial described in Example 1. Additionally, examination of differences in survival and response rates between different immune response categories within a single treatment group were analyzed. […]

CD8+ T cells = type: cell-based, human; details: mTNBC patients
[4] = tested on: TNBC tumors categorized as CDK4/6 independent, dependent or indeterminate; assay: G1T28-04 subgroup analysis by CDK4/6 dependency signature (PAM50, Lehmann)
From the text: Using two established signatures (Prosigna Breast Cancer Prognostic Gene Signature Assay [PAM50] and Lehmann triple-negative breast cancer type 1-4), patient tumors were characterized as CDK4/6 independent, dependent, or indeterminate. […] Because their reliance on the CDK4/6 pathway for proliferation is either unknown or heterogeneous, the remaining PAM50 signature groups (including HER2, normal-like, luminal A, and luminal B) are categorized as CDK4/6 indeterminate.
To address the theoretical risk that trilaciclib could decrease antitumor activity in patients with CDK4/6 dependent tumors by arresting CDK4/6-dependent tumor cells during chemotherapy, an additional prespecified subgroup analysis of the antitumor activity endpoints (objective response, progression-free survival, and overall survival) using two established signatures (PAM50 and Lehmann triple-negative breast cancer type 1-4) was performed to characterize patient tumors as CDK4/6 independent, dependent, or indeterminate.

[5] = tested on: T-cell clones (T-cell receptor β sequences); assay: Phase 2 NCT03041311 (E/P/A with or without trilaciclib): TCRB differential abundance analysis in whole blood; type: in vivo, human; details: for T-cell clonal expansion in responders: trilaciclib responders vs placebo responders and vs trilaciclib non-responders (FIG. 12)
Procedure: as §1
In the induction phase, patients received trilaciclib (240 mg/m2 diluted in 250 mL D5W or sodium chloride solution 0.9%) or placebo (250 mL of D5W or sodium chloride solution 0.9%) administered IV once daily on days 1 to 3 of a 21-day cycle of each etoposide/carboplatin/atezolizumab (E/P/A) therapy cycle (up to 4 cycles in total). […] Atezolizumab (1200 mg) in 250 mL sodium chloride solution 0.9% was administered as an IV infusion on day 1 of each 21-day cycle in both the induction and maintenance phases. Atezolizumab was infused over 60 minutes for the first administration and, if tolerated, all subsequent infusions were delivered over 30 minutes. Atezolizumab was administered following the completion of administration of Compound I or placebo, etoposide, and carboplatin.
Analysis of the TCRB locus in blood samples was performed to identify biomarkers of immune response and immunomodulatory activity between the trilaciclib arm and the placebo arm. All samples were sequenced using a 1-rxn TCRB Assay. The number of expanded T-cell clones was determined by the differential abundance analysis of T-cell receptor β sequences in whole blood from patients at after induction and prior to starting maintenance versus baseline.

[6] = tested on: PD-L1 positive or negative TNBC tumors; assay: G1T28-04 overall survival by PD-L1 tumor status (Ventana SP142); type: in vivo, human; details: p=0.005
Procedure: Patient tumors from the G1T28-04 clinical trial described in Example 1 were characterized based on PD-L1 expression scored as negative or positive if <1% or ≥1% of the total tumor area contained PD-L1-labelled immune cells, respectively, using the Ventana SP142 assay. Association of PD-L1 expression with antitumor efficacy was assessed using proportional hazards regression. The groups are divided as follows: Group 1 (gemcitabine+carboplatin only on days 1 and 8 in a 21-day cycles), Group 2 (gemcitabine+carboplatin+trilaciclib on days 1 and 8 in a 21 day cycle), and Group 3 (gemcitabine+carboplatin on days 2 and 9+trilaciclib on days 1, 2, 8, and 9 in a 21-day cycle).

CN1CCN(c2ccc(Nc3ncc4cc5n(c4n3)C3(CCCCC3)CNC5=O)nc2)CC1 [trilaciclib, 2′-((5-(4-methylpiperazin-1-yl)pyridin-2-yl)amino)-7′, 8′-dihydro-6′H-spiro(cyclohexane-1,9′-pyrazino(1′,2′:1,5)pyrrolo(2,3-d)pyrimidin)-6′-one]
OS HR (trilaciclib versus placebo) [1]: 0.34 | Overall survival compared with Group 1 (not receiving trilaciclib) ([2]; TNBC with high Ayers Expanded Immune Signature score): significantly improved overall survival | Overall survival compared with Group 1 (not receiving trilaciclib) ([2]; TNBC with high Ayers IFN-γ Signature score, p=0.0194): significantly improved overall survival | Overall survival compared with Group 1 (not receiving trilaciclib) [3]: significantly improved overall survival | Lymphocyte counts and T-cell activation (CD8+ T cells; addition of trilaciclib to gemcitabine and carboplatin): did not preserve lymphocyte counts or enhance T-cell activation | Frequency of CD8+ T cells producing IFN-γ after ex-vivo stimulation (CD8+ T cells; GC plus trilaciclib vs group 1 (FIG. 5)): higher frequency | Effect of including trilaciclib on chemotherapy efficacy ([4]; TNBC with variable or CDK4/6 dependent tumor (PAM50 Other or Lehmann LAR)): did not antagonize chemotherapy efficacy | Effect of including trilaciclib on chemotherapy efficacy ([4]; TNBC with variable or CDK4/6 independent tumor (PAM50 Basal-Like or Lehmann Other)): did not antagonize chemotherapy efficacy | Number of expanded T-cell clones ([5]; SCLC patients on E/P/A, trilaciclib vs E/P/A only, after induction vs baseline, P=0.01, FIG. 11): significantly higher | Number of newly expanded T-cell clones in responders ([5]; SCLC, E/P/A, responders receiving trilaciclib vs without, p=0.001, FIG. 13): more newly expanded clones | Fraction of newly expanded clones versus all expanded clones in responders ([5]; SCLC, E/P/A, responders receiving trilaciclib vs without, p=0.001, FIG. 14): significantly increased | T-cell clonal expansion in responders ([5]; SCLC, E/P/A): more T-cell clonal expansion | T-cell clonal expansion in responders ([5]; SCLC, E/P/A, listed as Trilaciclib): more clonal expansion | Overall survival compared with patients who did not receive trilaciclib [6]: statistically significant overall survival
